Source: patent US20210087206A1, “MACROCYCLIC KINASE INHIBITORS AND THEIR USE” (TURNING POINT THERAPEUTICS, INC., priority 2017, published 2021)

Columns and labels:
Test in all cases: Cell proliferation assay (CellTiter-Glo)
Format in all cases: cell-based
BaF3 EML4-ALK = target: T1, BaF3 EML4-ALK (Homo sapiens, UniProt Q9UM73); conditions: anti-cell proliferation, 72 hours
T1 construct: The EML4-ALK gene (variant 1) was synthesized at GenScript and cloned into pCDH-CMV-MCS-EF1-Puro plasmid (System Biosciences, Inc); fused on or other part: EML4 N-terminal part (variant 1: exons 1-13, with the coiled-coil that oligomerises the fusion) fused to the intracellular part of ALK, which contains the kinase domain; Q9HC35 (Echinoderm microtubule-associated protein-like 4)
Protocol: Cloning and Ba/F3 or NIH3T3 Stable Cell Line Creation
The EML4-ALK gene (variant 1) was synthesized at GenScript and cloned into pCDH-CMV-MCS-EF1-Puro plasmid (System Biosciences, Inc). Ba/F3-EML4-ALK wild type were generated by transducing Ba/F3 cells with lentivirus containing EML4-ALK wide type. Stable cell lines were selected by puromycin treatment, followed by IL-3 withdrawal. Briefly, 5×10^6 Ba/F3 cells were transduced with lentivirus supernatant in the presence of 8 μg/mL protamine sulfate. The transduced cells were subsequently selected with 1 μg/mL puromycin in the presence of IL3-containing medium RPMI1640, plus 10% FBS. After 10-12 days of selection, the surviving cells were further selected for IL3 independent growth.
(§1) Cell Proliferation Assays:
(§2) Two thousand cells per well were seeded in 384 well white plate for 24 hrs, and then treated with compounds for 72 hours (37° C., 5% CO2). Cell proliferation was measured using CellTiter-Glo luciferase-based ATP detection assay (Promega) following the manufactures's protocol. IC50 determinations were performed using GraphPad Prism software (GraphPad, Inc., San Diego, Calif.).

KM12 (TPM3-TRKA) = conditions: Homo sapiens, anti-cell proliferation, 72 hours
Protocol: (§3) Cell Lines and Cell Culture:
(§4) Colorectal cell line KM 12 (harboring endogenous TPM3-TRKA fusion gene) was obtained from NCI. Acute myelogenous cell line KG-1 (harboring endogenous OP2-FGFR1 fusion gene) were purchased from ATCC.
as §1, §2

KG-1 cell (OP2-FGFR1) = conditions: Homo sapiens, anti-cell proliferation, 72 hours
Protocol: as §3, §4, §1, §2

T1 sequence (Q9UM73 whole entry, stated change not applied, the tested form may be a part): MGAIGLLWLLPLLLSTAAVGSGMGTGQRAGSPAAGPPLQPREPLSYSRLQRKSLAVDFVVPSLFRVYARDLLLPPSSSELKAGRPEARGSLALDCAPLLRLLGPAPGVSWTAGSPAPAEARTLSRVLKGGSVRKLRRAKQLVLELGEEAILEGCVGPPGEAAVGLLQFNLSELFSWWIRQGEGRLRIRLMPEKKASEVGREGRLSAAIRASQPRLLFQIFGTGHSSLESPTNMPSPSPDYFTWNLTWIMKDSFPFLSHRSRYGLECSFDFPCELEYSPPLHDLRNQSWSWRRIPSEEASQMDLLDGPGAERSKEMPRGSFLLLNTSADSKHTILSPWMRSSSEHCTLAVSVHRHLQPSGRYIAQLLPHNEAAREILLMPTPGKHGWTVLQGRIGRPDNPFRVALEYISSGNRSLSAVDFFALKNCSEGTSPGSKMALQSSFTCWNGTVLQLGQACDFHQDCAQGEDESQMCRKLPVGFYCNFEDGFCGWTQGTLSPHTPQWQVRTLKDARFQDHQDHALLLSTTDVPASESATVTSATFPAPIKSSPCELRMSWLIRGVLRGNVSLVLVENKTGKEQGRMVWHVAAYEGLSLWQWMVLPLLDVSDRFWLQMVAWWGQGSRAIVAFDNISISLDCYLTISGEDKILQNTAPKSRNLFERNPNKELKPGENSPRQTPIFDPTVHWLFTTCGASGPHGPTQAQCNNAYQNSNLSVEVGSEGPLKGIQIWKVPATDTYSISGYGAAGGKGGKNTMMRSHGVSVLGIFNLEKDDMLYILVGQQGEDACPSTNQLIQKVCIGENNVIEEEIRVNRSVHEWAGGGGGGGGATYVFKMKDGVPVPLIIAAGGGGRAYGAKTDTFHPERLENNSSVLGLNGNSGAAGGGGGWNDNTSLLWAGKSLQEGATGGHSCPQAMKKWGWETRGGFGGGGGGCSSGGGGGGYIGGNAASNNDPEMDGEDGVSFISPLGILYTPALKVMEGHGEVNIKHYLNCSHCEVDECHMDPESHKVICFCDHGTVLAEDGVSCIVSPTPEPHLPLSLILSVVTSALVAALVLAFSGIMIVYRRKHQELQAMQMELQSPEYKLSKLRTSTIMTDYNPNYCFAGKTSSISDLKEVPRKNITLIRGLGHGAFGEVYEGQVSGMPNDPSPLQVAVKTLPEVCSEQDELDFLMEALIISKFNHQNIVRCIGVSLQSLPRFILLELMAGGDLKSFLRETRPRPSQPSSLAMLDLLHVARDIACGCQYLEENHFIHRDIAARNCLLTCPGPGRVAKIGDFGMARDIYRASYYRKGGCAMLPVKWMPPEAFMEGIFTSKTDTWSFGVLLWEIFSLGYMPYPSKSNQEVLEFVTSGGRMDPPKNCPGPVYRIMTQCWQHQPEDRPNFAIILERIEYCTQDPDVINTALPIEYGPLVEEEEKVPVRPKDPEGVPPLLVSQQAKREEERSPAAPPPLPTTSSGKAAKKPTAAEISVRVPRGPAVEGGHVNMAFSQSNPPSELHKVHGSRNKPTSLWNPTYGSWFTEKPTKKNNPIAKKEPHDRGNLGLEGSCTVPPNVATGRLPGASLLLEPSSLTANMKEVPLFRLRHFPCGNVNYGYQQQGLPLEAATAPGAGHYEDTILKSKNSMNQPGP

SMILES | IC50 (BaF3 EML4-ALK) [nM] | IC50 (KM12 (TPM3-TRKA)) [nM] | IC50 (KG-1 cell (OP2-FGFR1)) [nM]
C[C@H]1CNC(=O)c2cnn3cc4c(nc23)N(Cc2cc(F)cnc2O1)[C@H](C1CC1)CO4 [Compound 26, (4R,12S)-4-cyclopropyl-8-fluoro-12-methyl-3,4,13,14-tetrahydro-6H-18,1-(metheno)[1,4]oxazino-[3,4-i]pyrazolo[4,3-f]pyrido-[3,2-l]-[1,4,8,10]oxatriazacyclo-tridecin-15(12H)-one] | 692 | < 0.2 | 694
C[C@@H]1COc2ncc(F)cc2[C@@H](C)N2c3nc4c(cnn4cc3OC[C@H]2C)C(=O)N1 [Compound 83, (4R,6R,13R)-8-fluoro-4,6,13-trimethyl-3,4,13,14-tetrahydro-6H-18,1-(metheno)[1,4]oxazino[3,4-i]pyrazolo[4,3-f]pyrido[3,2-l][1,4,8,10]oxatriazacyclotridecin-15(12H)-one] | 139 | < 0.2 | 30.2
C=C1COc2cn3ncc4c3nc2N1Cc1cc(F)cnc1OC[C@@H](C)NC4=O [Compound 42, (13R)-8-fluoro-13-methyl-4-methylidene-3,4,13,14-tetrahydro-6H-18,1-(metheno)[1,4]oxazino[3,4-i]pyrazolo[4,3-f]pyrido[3,2-1][1,4,8,10]oxatriazacyclotridecin-15(12H)-one] | 1200 | < 0.2 | 1230
C[C@@H]1COc2cn3ncc4c3nc2N1Cc1cc(F)cnc1OC[C@@H](F)CNC4=O [Compound 78, (7S,16R)-7,12-difluoro-16-methyl-5,6,7,8,16,17-hexahydro-4H,14H,- 1,19-(metheno)[1,4]oxazino[4,3-e]pyrazolo[3,4-h]pyrido[2,3-b] [1,5,7,11]oxatriazacyclotetradecin-4-one] | 33 | < 0.2 | 10.2
C[C@@H]1COc2ncc(F)cc2CN2c3nc4c(cnn4cc3OCC2(C)C)C(=O)N1 [Compound 68, (13R)-8-fluoro-4,4,13-trimethyl-3,4,13,14-tetrahydro-6H-18,1-(metheno)[1,4]oxazino[3,4-i]-pyrazolo[4,3-f]pyrido[3,2-l] [1,4,8,10]oxatriazacyclotridecin-15(12H)-one] | 339 | < 0.2 | 5690
C[C@@H]1COc2cn3ncc4c3nc2N(Cc2cc(F)cnc2OCCC(C)(C)NC4=O)C1 [Compound 99, (17S)-12-fluoro-6,6,17-trimethyl-5,6,7,8,17,18-hexahydro-4H,14H,16H-1,20-(metheno)[1,4]oxazepino[4,3-e]pyrazolo[3,4-h]pyrido[2,3-b][1,5,7,11]oxatriazacyclotetradecin-4-one] | 2000 | 63.7 | 1370
C[C@@H]1COc2ncc(F)cc2CN2C[C@@H](O)COc3cn4ncc(c4nc32)C(=O)N1 [Compound 88, (4R,14R)-9-fluoro-4-hydroxy-14-methyl-4,5,14,15-tetrahydro-3H,7H-19,1-(metheno)[1,4]-oxazepino[3,4-i]pyrazolo[4,3-f]pyrido[3,2-l][1,4,8,10]oxatriaza-cyclotridecin-16(13H)-one] | 5000 | 3.1 | 3000
CC[C@@H]1COc2cn3ncc4c3nc2N1Cc1cc(F)cnc1OC[C@@H](C)NC4=O [Compound 15, (4R,13R)-4-ethyl-8-fluoro-13-methyl-3,4,13,14-tetrahydro-6H-18,1-(metheno)[1,4]oxazino[3,4-i]pyrazolo[4,3-f]pyrido[3,2-l] [1,4,8,10]oxatriazacyclotridecin-15(12H)-one] | 14 | < 0.2 | 25.2
C[C@H]1CNC(=O)c2cnn3cc4c(nc23)N(Cc2cc(F)cnc2O1)C[C@H](O)CO4 [Compound 62, (4S,13S)-9-fluoro-4-hydroxy-13-methyl-4,5,14,15-tetrahydro-3H,7H-19,1-(metheno)[1,4]-oxazepino[3,4-i]pyrazolo[4,3-f]-pyrido[3,2-l][1,4,8,10]oxatria-cyclotridecin-16(13H)-one] |  | 94.8 | 681
C[C@H]1CNC(=O)c2cnn3cc4c(nc23)N(Cc2cc(F)cnc2O1)[C@H](Cc1ccccc1)CO4 [Compound 38, (4R,12S)-4-benzyl-8-fluoro-12-methyl-3,4,13,14-tetrahydro-6H-18,1-(metheno)[1,4]oxazino[3,4-i]pyrazolo[4,3-f]pyrido[3,2-l] [1,4,8,10]oxatriazacyclotridecin-15(12H)-one] | 7240 |  | 357
C[C@@H]1COc2ncc(F)cc2CN2C[C@@H](F)COc3cn4ncc(c4nc32)C(=O)N1 [Compound 94, (4R,14R)-4,9-difluoro-14-methyl-4,5,14,15-tetrahydro-3H,7H-19,1-(metheno)[1,4]oxazepino[3,4-i]pyrazolo[4,3-f]pyrido[3,2-l] [1,4,8,10]oxatriazacyclotridecin-16(13H)-one] |  | 40.3 | 6110
CC[C@@H]1COc2ncc(F)cc2CN2c3nc4c(cnn4cc3OC[C@H]2C)C(=O)N1 [Compound 24, (4R,13R)-13-ethyl-8-fluoro-4-methyl-3,4,13,14-tetrahydro-6H-18,1-(metheno)[1,4]oxazino[3,4-i]pyrazolo[4,3-f]pyrido[3,2-l] [1,4,8,10]oxatriazacyclotridecin-15(12H)-one] | 104 |  | 50
C[C@@H]1COc2ncc(F)cc2CN2c3nc4c(cnn4cc3OC[C@H]2Cc2ccccc2)C(=O)N1 [Compound 39, (4R,13R)-4-benzyl-8-fluoro-13-methyl-3,4,13,14-tetrahydro-6H-18,1-(metheno)[1,4]oxazino[3,4-i]pyrazolo[4,3-f]pyrido[3,2-l] [1,4,8,10]oxatriazacyclotridecin-15(12H)-one] | 1610 |  | 73.7
C[C@H]1CNC(=O)c2cnn3cc4c(nc23)N(Cc2cc(F)cnc2O1)C[C@@H](O)CO4 [Compound 90, (4R,13S)-9-fluoro-4-hydroxy-13-methyl-4,5,14,15-tetrahydro-3H,7H-19,1-(metheno)[1,4]-oxazepino[3,4-i]pyrazolo[4,3-f]pyrido[3,2-l][1,4,8,10]oxatriaza-cyclotridecin-16(13H)-one] |  | < 0.2 | 359
C[C@@H]1COc2cn3ncc4c3nc2N1Cc1cc(F)cnc1OCC(O)(O)CNC4=O [Compound 81, (16R)-12-fluoro-7,7-dihydroxy-16-methyl-5,6,7,8,16,17-hexahydro-4H,14H-1,19-(metheno)[1,4]oxazino[4,3-e]pyrazolo[3,4-h]pyrido[2,3-b][1,5,7,11]oxatriazacyclotetradecin-4-one] |  | < 0.2 | 166
C[C@@H]1COc2ncc(F)cc2CN2c3nc4c(cnn4cc3OC[C@H]2C#N)C(=O)N1 [Compound 66, (4R,13R)-8-fluoro-13-methyl-15-oxo-3,4,12,13,14,15-hexahydro-6H-18,1-(metheno)[1,4]oxazino[3,4-i]pyrazolo[4,3-f]pyrido[3,2-1][1,4,8,10]oxatriazacyclotridecine-4-carbonitrile] |  | 463 | 10000
C[C@H]1CNC(=O)c2cnn3cc4c(nc23)N(Cc2cc(F)cnc2O1)C(C)(C)CO4 [Compound 37, (12S)-8-fluoro-4,4,12-trimethyl-3,4,13,14-tetrahydro-6H-18,1-(metheno)[1,4]oxazino[3,4-i]-pyrazolo[4,3-f]pyrido[3,2-l] [1,4,8,10]oxatriazacyclotridecin-15(12H)-one] | 1550 |  | 5000
